Results from patent publication US8765779B2, “Tricyclic derivatives and their pharmaceutical use and compositions” (Cephalon, Inc., priority 2009, dated 2014).
Structures can show the parent of a compound that is named as a salt.

melting point | Compound
210 to 213 °C | COCCOc1cccc(S(=O)(=O)c2ccc3c(c2)OC2CNCCC32)c1 (centres unmarked) (as salt: HCl) [Example 558]
> 200 °C (dec.) | O=S(=O)(c1cccc(F)c1)c1ccc2c3c(oc2c1)C1(CCC1)NCC3 (as salt: HCl) [Example 25, 7-[(3-fluorophenyl)sulfonyl]-3,4-dihydro-2H-spiro[1-benzofuro[2,3-c]pyridine-1,1′-cyclobutane]]
248 to 252 °C | CC1(C)CNC(C2CCOCC2)c2oc3cc(S(=O)(=O)c4cccc(F)c4)ccc3c21 (racemic) (as salt: HCl) [Example 45, 7-[(3-fluorophenyl)sulfonyl]-4,4-dimethyl-1-(tetrahydro-2H-pyran-4-yl)-1,2,3,4-tetrahydro[1]benzofuro[2,3-c]pyridine]
217 to 227 °C | CC(=O)NCC1(C)NCCc2c1oc1cc(S(=O)(=O)c3cccc(F)c3)ccc21 (centres unmarked) (as salt: HCl) [Example 631, N-({7-[(3-fluorophenyl)sulfonyl]-1-methyl-1,2,3,4-tetrahydro[1]benzofuro[2,3-c]pyridin-1-yl}methyl)acetamide]
> 200 °C (dec.) | CC1(C)NCCc2c1oc1cc(S(=O)(=O)c3cccc(Cl)c3)ccc21 (as salt: HCl) [Example 17, 7-[(3-chlorophenyl)sulfonyl]-1,1-dimethyl-1,2,3,4-tetrahydro[1]benzofuro[2,3-c]pyridine]
148 to 155 °C (dec.) | CC(C)Oc1cccc(S(=O)(=O)c2ccc3c4c(oc3c2)C2(CCCOC2)NCC4)c1 (racemic) (as salt: HCl) [Example 23, 7-{[3-(propan-2-yloxy)phenyl]sulfonyl}-3,4,5′,6′-tetrahydro-2H,4′H-spiro[1-benzofuro[2,3-c]pyridine-1,3′-pyran]]
245 to 248 °C | CN(C)C(=O)c1c(F)cccc1S(=O)(=O)c1ccc2c3c(oc2c1)CNCC3 (as salt: HCl) [Example 479]
250 to 265 °C | O=S(=O)(c1ccc2c3c(oc2c1)C1(CCOCC1)NCC3)c1cccc(F)c1F (as salt: HCl) [Example 475]
> 200 °C (dec.) | CC1(C)NCCc2c1oc1cc(S(=O)(=O)c3ccc(F)c(Cl)c3)ccc21 (as salt: HCl) [Example 18, 7-[(3-chloro-4-fluorophenyl)sulfonyl]-1,1-dimethyl-1,2,3,4-tetrahydro[1]benzofuro[2,3-c]pyridine]
164 to 166 °C | COCCCOc1cc(OC(C)C)cc(S(=O)(=O)c2ccc3c(c2)OC2CNCCC32)c1 (centres unmarked) (as salt: HCl) [Example 588]
179 to 181 °C | COCCCOc1cccc(S(=O)(=O)c2ccc3c(c2)OC2CNCCC32)c1 (centres unmarked) (as salt: HCl) [Example 576]
256 °C (dec.) | CC(=O)N1CCC2(CC1)NCCc1c2oc2cc(S(=O)(=O)c3cccc(F)c3)ccc12 (as salt: HCl) [Example 41, 1-{7-[(3-fluorophenyl)sulfonyl]-3,4-dihydro-1′H,2H-spiro[1-benzofuro[2,3-c]pyridine-1,4′-piperidin]-1′-yl}ethanone]
210 to 260 °C | CC(=O)NCC1(C)NCCc2c1oc1cc(S(=O)(=O)c3cccc(F)c3)ccc21 (centres unmarked) (as salt: HCl) [Example 632, N-({7-[(3-fluorophenyl)sulfonyl]-1-methyl-1,2,3,4-tetrahydro[1]benzofuro[2,3-c]pyridin-1-yl}methyl)acetamide]
247 to 250 °C | CC1(C(F)F)NCCc2c1oc1cc(S(=O)(=O)c3cccc(F)c3F)ccc21 (single isomer, unassigned; enantiomer 1) (as salt: HCl) [Example 471, 1-(Difluoromethyl)-7-[(2,3-difluorophenyl)sulfonyl]-1-methyl-1,2,3,4-tetrahydro[1]benzofuro[2,3-c]pyridine, enantiomer 1]
174 to 175 °C | C#CCOc1cccc(S(=O)(=O)c2ccc3c(c2)OC2CNCCC32)c1 (centres unmarked) (as salt: HCl) [Example 549]
298 to 301 °C (dec.) | CC1OCCC12NCCc1c2oc2cc(S(=O)(=O)c3cccc(F)c3)ccc12 (single isomer, unassigned) (as salt: HCl) [Example 60, 7-[(3-Fluorophenyl)sulfonyl]-2′-methyl-3,4,4′,5′-tetrahydro-2H-spiro[1-benzofuro[2,3-c]pyridine-1,3′-furan]]
219 to 222 °C | CC(C)Oc1cccc(S(=O)(=O)c2ccc3c4c(oc3c2)C(C)(C(F)F)NCC4)c1 (single isomer, unassigned) (as salt: HCl) [Example 34, 1-(difluoromethyl)-1-methyl-7-{[3-(propan-2-yloxy)phenyl]sulfonyl}-1,2,3,4-tetrahydro[1]benzofuro[2,3-c]pyridine]
221 to 223 °C | CC(C)Oc1cccc(S(=O)(=O)c2ccc3c(c2)OC2CNCCC32)c1F (centres unmarked) (as salt: HCl) [Example 481]
> 300 °C | CCC1(C)NCCc2c1oc1cc(S(=O)(=O)c3cccc(F)c3)ccc21 (racemic) (as salt: HCl) [Example 27, 1-ethyl-7-[(3-fluorophenyl)sulfonyl]-1-methyl-1,2,3,4-tetrahydro[1]benzofuro[2,3-c]pyridine]
230 to 233 °C | CN(C)C(=O)CC1(C)NCCc2c1oc1cc(S(=O)(=O)c3cccc(F)c3)ccc21 (single isomer, unassigned) (as salt: HCl) [Example 50, 2-{7-[(3-fluorophenyl)sulfonyl]-1-methyl-1,2,3,4-tetrahydro[1]benzofuro[2,3-c]pyridin-1-yl}-N,N-dimethylacetamide]
> 290 °C | CNC(=O)c1cccc(S(=O)(=O)c2ccc3c4c(oc3c2)CNCC4)c1 (as salt: HCl) [Example 478]

Further lines, the compound ahead of its results:

Compound | melting point
Cc1ccnc(S(=O)(=O)c2ccc3c(c2)OC2CNCCC32C)n1 (racemic) (as salt: HCl) [Example 7, 4a-methyl-7-[(4-methylpyrimidin-2-yl)sulfonyl]-1,2,3,4,4a,9a-hexahydro[1]benzofuro[2,3-c]pyridine] | 199 to 201 °C
CC(C)Oc1cc(OC(CO)CCl)cc(S(=O)(=O)c2ccc3c(c2)OC2CNCCC32)c1 (centres unmarked) (as salt: HCl) [Example 589] | 211 to 213 °C (dec.)
O=S(=O)(c1cccc(OCCCO)c1)c1ccc2c(c1)OC1CNCCC21 (centres unmarked) (as salt: HCl) [Example 568] | 206 to 209 °C
CC12CCNCC1Oc1ccc(S(=O)(=O)c3ccccc3)cc12 (centres unmarked) (as salt: hydrochloride) [Example 62, 4a-Methyl-6-(phenylsulfonyl)-1,2,3,4,4a,9a-hexahydro[1]benzofuro[2,3-c]pyridine hydrochloride] | 236 to 238 °C (dec.)
O=C(COc1cccc(S(=O)(=O)c2ccc3c(c2)OC2CNCCC32)c1)N1CCCC1 (centres unmarked) (as salt: HCl) [Example 564] | 195 to 196 °C
CC12CCNCC1Oc1cc(S(=O)(=O)c3cccc(F)c3F)ccc12 (centres unmarked) (as salt: HCl) [Example 488] | 202 to 204 °C
N#Cc1cccc(COc2cccc(S(=O)(=O)c3ccc4c(c3)OC3CNCCC43)c2)c1 (centres unmarked) (as salt: HCl) [Example 552] | 200 to 201 °C
O=S(=O)(c1cccc(OCC2CC2)c1)c1ccc2c(c1)OC1CNCCC21 (centres unmarked) (as salt: HCl) [Example 555] | 208 to 210 °C
O=S(=O)(c1cccc(OC2CCOCC2)c1)c1ccc2c(c1)OC1CNCCC21 (centres unmarked) (as salt: HCl) [Example 571] | 184 to 186 °C
CC(C)Oc1cccc(S(=O)(=O)c2ccc3c(c2)OC2CNCCC32C)c1 (racemic) (as salt: HCl) [Example 12, 4a-methyl-7-{[3-(propan-2-yloxy)phenyl]sulfonyl}-1,2,3,4,4a,9a-hexahydro[1]benzofuro[2,3-c]pyridine] | 206 to 208 °C
O=S(=O)(c1ccc2c(c1)OC1CNCCC21)c1cccc(OCC2CCOCC2)c1F (centres unmarked) (as salt: HCl) [Example 482] | 175 to 177 °C
CC12CCNCC1Oc1cc(S(=O)(=O)c3ncccn3)ccc12 (racemic) (as salt: HCl) [Example 9, 4a-methyl-7-(pyrimidin-2-ylsulfonyl)-1,2,3,4,4a,9a-hexahydro[1]benzofuro[2,3-c]pyridine] | 232 to 234 °C
COc1ccccc1S(=O)(=O)c1ccc2c(c1)OC1CNCCC21C (racemic) (as salt: HCl) [Example 3, 7-[(2-methoxyphenyl)sulfonyl]-4a-methyl-1,2,3,4,4a,9a-hexahydro[1]benzofuro[2,3-c]pyridine] | 222 to 224 °C
CC12CCNCC1Oc1cc(S(=O)(=O)c3ccccn3)ccc12 (racemic) (as salt: HCl) [Example 8, 4a-methyl-7-(pyridin-2-ylsulfonyl)-1,2,3,4,4a,9a-hexahydro[1]benzofuro[2,3-c]pyridine] | 282 to 283 °C
COc1cc(OC)cc(S(=O)(=O)c2ccc3c(c2)OC2CNCCC32C)c1 (centres unmarked) (as salt: HCl) [Example 490] | 250 to 252 °C
CCOc1cccc(S(=O)(=O)c2ccc3c(c2)OC2CNCCC32C)c1 (racemic) (as salt: HCl) [Example 10, 7-[(3-ethoxyphenyl)sulfonyl]-4a-methyl-1,2,3,4,4a,9a-hexahydro[1]benzofuro[2,3-c]pyridine] | 271 to 273 °C
O=S(=O)(c1cccc(OCc2ccncc2)c1)c1ccc2c(c1)OC1CNCCC21 (centres unmarked) (as salt: HCl) [Example 561] | 182 to 185 °C
COc1cc(OCC2CCOCC2)cc(S(=O)(=O)c2ccc3c(c2)OC2CNCCC32)c1 (centres unmarked) (as salt: HCl) [Example 584] | 207 to 208 °C
O=S(=O)(c1cccc(Oc2cnccn2)c1)c1ccc2c(c1)OC1CNCCC21 (centres unmarked) (as salt: HCl) [Example 580] | 234 to 236 °C
CNC(=O)c1c(F)cccc1S(=O)(=O)c1ccc2c(c1)OC1CNCCC21 (centres unmarked) (as salt: HCl) [Example 477] | > 200 °C
Cc1c(OCc2cccnc2)cccc1S(=O)(=O)c1ccc2c(c1)OC1CNCCC21 (centres unmarked) (as salt: HCl) [Example 566] | 179 to 182 °C
O=S(=O)(c1cccc(Oc2ccccn2)c1)c1ccc2c(c1)OC1CNCCC21 (centres unmarked) (as salt: HCl) [Example 579] | 198 to 203 °C
O=S(=O)(c1cccc(OCCn2cccc2)c1)c1ccc2c(c1)OC1CNCCC21 (centres unmarked) (as salt: HCl) [Example 573] | 233 to 234 °C
